We go through 15 molecules from ChEMBL document CHEMBL1124332, “2-(Alkylamino)tetralin derivatives: interaction with 5-HT1A serotonin binding sites” (J Med Chem, 1989).

Experiment [1] concerns the target T1, 5-hydroxytryptamine receptor 1A (Rattus norvegicus) (UniProt P19327).
T1 sequence (whole entry): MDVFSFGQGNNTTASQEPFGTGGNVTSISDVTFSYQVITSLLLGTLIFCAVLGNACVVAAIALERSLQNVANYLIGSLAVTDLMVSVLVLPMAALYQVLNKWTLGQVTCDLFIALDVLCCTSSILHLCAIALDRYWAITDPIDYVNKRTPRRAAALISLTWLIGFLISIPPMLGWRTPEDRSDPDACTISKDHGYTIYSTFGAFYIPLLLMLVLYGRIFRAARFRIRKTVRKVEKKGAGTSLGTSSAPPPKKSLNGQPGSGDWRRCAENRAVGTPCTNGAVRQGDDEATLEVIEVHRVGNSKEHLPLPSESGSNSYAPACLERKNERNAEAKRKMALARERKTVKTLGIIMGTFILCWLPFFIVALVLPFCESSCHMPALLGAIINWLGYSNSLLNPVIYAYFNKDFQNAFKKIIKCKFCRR
The experiment can be described thus: Binding affinity at [3H]8-OH-DPAT-Labeled 5-hydroxytryptamine 1A receptor sites in rat brain hippocampal membranes expressed as Hill values. The class given is cell membranes.

In experiment [2] the target is T2, 5-hydroxytryptamine receptor 1A (Rattus norvegicus, UniProt P19327).
T2 sequence (P19327 whole entry): T1 sequence (whole entry)
Nature of the experiment: Binding affinity at [3H]8-OH-DPAT-Labeled 5-hydroxytryptamine 1A receptor sites in rat brain hippocampal membranes. Format: cell membranes.

As usually defined, the Hill coefficient is the slope factor of the fitted curve. By pKi is commonly meant −log10 of the Ki, conventionally taken in molar units. A high value points to a small Ki.

pKi: −log10 of the molar value.

`c1ccc(CCCNC2CCc3ccccc3C2)cc1` (stereo not drawn): the Hill coefficient in experiment [1] was determined as 1.06. Also, in experiment [2], the pKi was 7.89.
Turning to `CCCN(C)C1CCc2cccc(OC)c2C1` (stereo not drawn), the Hill coefficient in experiment [1] turned out to be 0.91. This molecule showed a pKi in experiment [2] of 8.68.
In the case of `COc1cccc2c1CC(NCCc1ccccc1)CC2` (stereo not drawn), the Hill coefficient in experiment [1] was 0.85. The molecule further had a negative logarithm of the Ki (pKi) in experiment [2] of 7.36.
In the same order, the values of `COc1cccc2c1CC(NCCCc1ccccc1)CC2` (stereo not drawn) are 0.83 and 8.60.
In the same order, the values of `COc1cccc2c1CC(N)CC2` (stereo not drawn) are 0.77 and 7.28.
In the same order, the values of `c1ccc(CCCNC2CCc3cccc(OCc4ccccc4)c3C2)cc1` (stereo not drawn) are 0.91 and 8.00.
Turning to `CCCN(CCC)C1CCc2cccc(O)c2C1` (stereo not drawn), the Hill coefficient in experiment [1] was 1.01.
`COc1cccc2c1CC(N(C)CCCc1ccccc1)CC2` (stereo not drawn): in experiment [1], the Hill coefficient turned out to be 0.94. In experiment [2], this molecule had a pKi of 8.70.
In turn, `CCCNC1CCc2cccc(OC)c2C1` (stereo not drawn) gave a Hill coefficient in experiment [1] of 0.8. Further, in experiment [2], the negative logarithm of the Ki (pKi) is 8.64.
`CCCN(CCC)C1CCc2cccc(OC)c2C1` (stereo not drawn) showed a Hill coefficient in experiment [1] of 0.78.
For the molecule `Oc1cccc2c1CC(NCCCc1ccccc1)CC2` (stereo not drawn), in experiment [1], the Hill coefficient turned out to be 0.87. This molecule showed a pKi in experiment [2] of 8.72.
In the same order, the values of `COc1cccc2c1CC(NCCCCc1ccccc1)CC2` (stereo not drawn) are 0.92 and 8.25.
The corresponding values for `COc1cccc2c1CC(N(C)Cc1ccccc1)CC2` (stereo not drawn) are 0.91 and 7.11.
In the same order, the values of `CCCNC1CCc2ccccc2C1` (stereo not drawn) are 0.74 and 7.72.
Regarding `COc1cccc2c1CC(N(C)CCc1ccccc1)CC2` (stereo not drawn), in experiment [1], the Hill coefficient was determined as 0.9. Besides, the pKi in experiment [2] was 8.10.
